# From the OligoGym collection
# Where “and” joins values, the source holds several entries; their conditions need not be identical. Identical values can stand only once. After the bases stand the sugars from the 5' end (letter, count) and the backbone: PS all phosphorothioate, else s phosphorothioate and o phosphodiester by linkage. Methylation of C is not given here. e = 2'-O-(2-methoxyethyl) (MOE); k = constrained ethyl (cEt); d = 2'-deoxy (DNA)
# Target: IRF4
# Settings: ASO, MM.1R, 0.0625 µM
row,Sequence,target mRNA inhibition
1,"TGGTATTTTTCCGTTC (sugars k3 d10 k3, PS)",6%
2,"TGGTTGGCTGGTCTTT (sugars k3 d10 k3, PS)",6%
3,"TGTATTACTCTTAGGC (sugars k3 d10 k3, PS)",7%

# Same assay, conditions: ASO, MM.1R, 0.074 µM
row,Sequence,target mRNA inhibition
1,"TGGTATTTTTCCGTTC (sugars k3 d10 k3, PS)",13%
2,"TTCCAGGTCATTTGAC (sugars k3 d10 k3, PS)",2%

# Same assay, conditions: ASO, MM.1R, 0.222 µM
row,Sequence,target mRNA inhibition
1,"TGGTATTTTTCCGTTC (sugars k3 d10 k3, PS)",6%
2,"TTCCAGGTCATTTGAC (sugars k3 d10 k3, PS)",3%

# Same assay, conditions: ASO, MM.1R, 0.25 µM
row,Sequence,target mRNA inhibition
1,"TGGTATTTTTCCGTTC (sugars k3 d10 k3, PS)",20%
2,"TGGTTGGCTGGTCTTT (sugars k3 d10 k3, PS)",40%
3,"TGTATTACTCTTAGGC (sugars k3 d10 k3, PS)",21%

# Same assay, conditions: ASO, MM.1R, 0.666 µM
row,Sequence,target mRNA inhibition
1,"TGGTATTTTTCCGTTC (sugars k3 d10 k3, PS)",24%
2,"TTCCAGGTCATTTGAC (sugars k3 d10 k3, PS)",9%

# Same assay, conditions: ASO, MM.1R, 1 µM
row,Sequence,target mRNA inhibition
1,"TGGTATTTTTCCGTTC (sugars k3 d10 k3, PS)",39%
2,"TGGTTGGCTGGTCTTT (sugars k3 d10 k3, PS)",88% and 69%
3,"TGGTTGGCTGGTCTTT (sugars kddddddddddkekek, PS)",9%
4,"TGTACAGGACAGGTAA (sugars k3 d10 k3, PS)",8%
5,"TGTAGTATGAGAAACG (sugars e1 k2 d9 k2 e2, PS)",6%
6,"TGTAGTATGAGAAACG (sugars k3 d9 k3 e1, PS)",33%
7,"TGTAGTATGAGAAACG (sugars kkdddddddddkdkdk, PS)",-6%
8,"TGTATTACTCTTAGGC (sugars k3 d10 k3, PS)",65% and 41%
9,"TGTGATAGCTGAGCTG (sugars k2 d9 e3 k2, PS)",12%
10,"TGTGATAGCTGAGCTG (sugars k3 d10 k3, PS)",47%
11,"TGTGATAGCTGAGCTG (sugars kddddddddddkekek, PS)",-2%
12,"TGTGCTTGCCAAGCCT (sugars k2 d9 e3 k2, PS)",45% and 40%
13,"TGTGCTTGCCAAGCCT (sugars k3 d10 k3, PS)",38% and 49%
14,"TGTGCTTGCCAAGCCT (sugars kkdddddddddekeke, PS)",21% and 1%
15,"TGTGGTTTCACATGAT (sugars k3 d10 k3, PS)",21%
16,"TGTTACCGATGCTTCA (sugars kdddddddddkekeke, PS)",10% and 13%
17,"TGTTAGGTGACCCAAA (sugars k3 d10 k3, PS)",2%
18,"TGTTCAGAAACCCTCA (sugars k3 d10 k3, PS)",-15%
19,"TGTTTTAAGAGGCGAC (sugars k3 d10 k3, PS)",3%
20,"TTAAAGGGTAAGCACT (sugars k3 d10 k3, PS)",-18%
21,"TTACCGATGCTTCAAG (sugars k3 d10 k3, PS)",16% and 19%

row,Sequence,target mRNA inhibition
1,"TTACTAATTCCATAGA (sugars k3 d10 k3, PS)",3%
2,"TTAGGCACATCAATGT (sugars k3 d10 k3, PS)",12% and 17%
3,"TTATATACTGGTTGGT (sugars k2 d9 e3 k2, PS)",40%
4,"TTATATACTGGTTGGT (sugars kdddddddddkekeke, PS)",20%
5,"TTATGTTAGCCAATTC (sugars k2 d9 e3 k2, PS)",14% and 9%
6,"TTATGTTAGCCAATTC (sugars k3 d10 k3, PS)",9% and 22%
7,"TTCATGTAAAGTCTGC (sugars kddddddddddkekek, PS)",2% and -18%
8,"TTCATGTAAAGTCTGC (sugars kkdddddddddkekek, PS)",10% and 12%
9,"TTCATTAGAAAGCCCT (sugars k3 d10 k3, PS)",-22%
10,"TTCTAGTCGCGCAAGT (sugars k3 d10 k3, PS)",-7%
11,"TTGATGTGATAGCTGA (sugars kkdddddddddkdkdk, PS)",36%
12,"TTGGTTGGCTGGTCTT (sugars k2 d9 e3 k2, PS)",50%
13,"TTGGTTGGCTGGTCTT (sugars kddddddddddkekek, PS)",34%
14,"TTGGTTGGCTGGTCTT (sugars kkdddddddddkekek, PS)",65%
15,"TTGTTTGCAAGCTATA (sugars k3 d10 k3, PS)",36%
16,"TTTAAGAGGCGACTGC (sugars k3 d10 k3, PS)",-100%
17,"TTTATGTTAGCCAATT (sugars kddddddddddkekek, PS)",0% and -12%
18,"TTTATGTTAGCCAATT (sugars kkdddddddddekeke, PS)",12% and -13%
19,"TTTCTAATGGTGCTCC (sugars k3 d10 k3, PS)",4%
20,"TTTCTACAAGGTCTGA (sugars k3 d10 k3, PS)",3%

# Same assay, conditions: ASO, MM.1R, 2 µM
row,Sequence,target mRNA inhibition
1,"TGGTATTTTTCCGTTC (sugars k3 d10 k3, PS)",51%
2,"TTCCAGGTCATTTGAC (sugars k3 d10 k3, PS)",27%

# Same assay, conditions: ASO, MM.1R, 4 µM
row,Sequence,target mRNA inhibition
1,"TGGTATTTTTCCGTTC (sugars k3 d10 k3, PS)",73%
2,"TGGTTGGCTGGTCTTT (sugars k3 d10 k3, PS)",89%
3,"TGTATTACTCTTAGGC (sugars k3 d10 k3, PS)",68%

# Same assay, conditions: ASO, SK-MEL-28, 4 µM
row,Sequence,target mRNA inhibition
1,"TGGGTACATGGCAGTG (sugars k3 d10 k3, PS)",74%
2,"TGGTAACAATACTGTA (sugars k3 d10 k3, PS)",65%
3,"TGGTAGAATGTGATAT (sugars k3 d10 k3, PS)",43%
4,"TGGTAGGTAGGCACCT (sugars k3 d10 k3, PS)",35%
5,"TGGTATTTTTCCGTTC (sugars k3 d10 k3, PS)",69%
6,"TGGTGGGTCCTGGCAG (sugars k3 d10 k3, PS)",23%
7,"TGTAAATGAGTCGGTC (sugars k3 d10 k3, PS)",69%
8,"TGTAGGGCGACTAACT (sugars k3 d10 k3, PS)",21%
9,"TGTATACATCACTGCA (sugars k3 d10 k3, PS)",63%
10,"TGTATAGTTCTCAACC (sugars k3 d10 k3, PS)",43%
11,"TGTATTTATGCCCTCG (sugars k3 d10 k3, PS)",44%
12,"TGTCCAGCTGGCTCCG (sugars k3 d10 k3, PS)",39%
13,"TGTCGATGCCTTCTCG (sugars k3 d10 k3, PS)",28%
14,"TGTGAACCTGCTGGGC (sugars k3 d10 k3, PS)",2%
15,"TGTGACATAAAGGACC (sugars k3 d10 k3, PS)",27%
16,"TGTGTCAAAGAGCTTG (sugars k3 d10 k3, PS)",22%
17,"TGTTAGCTACAAAGAG (sugars k3 d10 k3, PS)",47%
18,"TTAAAATATCGCCCAT (sugars k3 d10 k3, PS)",32%
19,"TTAAACAGCACTCAGA (sugars k3 d10 k3, PS)",33%
20,"TTAAATAAGATCCCAC (sugars k3 d10 k3, PS)",23%
21,"TTAACCATTACTTAGA (sugars k3 d10 k3, PS)",45%
22,"TTAAGCTAAACTCCTA (sugars k3 d10 k3, PS)",10%
23,"TTACCATTTTCACAAG (sugars k3 d10 k3, PS)",8%
24,"TTAGAAAGCCCTCACC (sugars k3 d10 k3, PS)",-16%
25,"TTAGAGAGGAGAATTT (sugars k3 d10 k3, PS)",35%

row,Sequence,target mRNA inhibition
1,"TTAGCAATTCCTGTTG (sugars k3 d10 k3, PS)",20%
2,"TTAGGATAATATACCC (sugars k3 d10 k3, PS)",52%
3,"TTCAACACACTGTCTG (sugars k3 d10 k3, PS)",-31%
4,"TTCAACTTGTGACCCA (sugars k3 d10 k3, PS)",49%
5,"TTCAAGAGGAACTAGT (sugars k3 d10 k3, PS)",6%
6,"TTCAGTGCTCACTGCT (sugars k3 d10 k3, PS)",69%
7,"TTCCAGCTTAGTCACC (sugars k3 d10 k3, PS)",37%
8,"TTCCAGGTCATTTGAC (sugars k3 d10 k3, PS)",66%
9,"TTCCATTGGAGGAGGG (sugars k3 d10 k3, PS)",28%
10,"TTGCAAGCTATATTAA (sugars k3 d10 k3, PS)",34%
11,"TTGCATAGGCATCCTT (sugars k3 d10 k3, PS)",47%
12,"TTGCATCTATAAGATG (sugars k3 d10 k3, PS)",31%
13,"TTGCATGGCTAATGAA (sugars k3 d10 k3, PS)",42%
14,"TTGGCTCCTTTTTTGG (sugars k3 d10 k3, PS)",13%
15,"TTGTACAGGACAGGTA (sugars k3 d10 k3, PS)",28%
16,"TTGTTCCACCCCTGGG (sugars k3 d10 k3, PS)",47%
17,"TTTAAGGCCCTGTCAA (sugars k3 d10 k3, PS)",-17%
18,"TTTACACTGGATCTGA (sugars k3 d10 k3, PS)",25%
19,"TTTACCTGGTATTGCT (sugars k3 d10 k3, PS)",38%
20,"TTTATAACCGGTAGAG (sugars k3 d10 k3, PS)",54%
21,"TTTGTACGGGTCTGAG (sugars k3 d10 k3, PS)",20%
22,"TTTTACCTGGTATTGC (sugars k3 d10 k3, PS)",-2%
23,"TTTTTAGTTCATACCC (sugars k3 d10 k3, PS)",41%
24,"TTTTTCTCACCATGGC (sugars k3 d10 k3, PS)",74%

# Target: MALAT1
# Settings: ASO, A431, 0.005 µM
row,Sequence,target mRNA inhibition
1,"AAAAAGTAGTTCTTCG (sugars k3 d10 k3, PS)",16%
2,"AAAAGGCTCGATGGAA (sugars k3 d10 k3, PS)",11%
3,"AAACCGATTATGGATC (sugars k3 d10 k3, PS)",3%
4,"AAACTTGCTTACACAC (sugars k3 d10 k3, PS)",25%
5,"AAAGAGTAACTACCAG (sugars k3 d10 k3, PS)",22%
6,"AAAGATATTGTGCTGT (sugars k3 d10 k3, PS)",11%
7,"AAAGTGGTTGCCCGCT (sugars k3 d10 k3, PS)",15%
8,"AAATCGCACTGGCTCC (sugars k3 d10 k3, PS)",6%
9,"AAATTTTTCTACCGTT (sugars k3 d10 k3, PS)",-3%
10,"AACAGTACTGCATTTA (sugars k3 d10 k3, PS)",36%
11,"AACATATTTTGCCCCC (sugars k3 d10 k3, PS)",22%
12,"AACATTTGGCCTACTC (sugars k3 d10 k3, PS)",42%
13,"AACCGATTATGGATCA (sugars k3 d10 k3, PS)",49%
